Assay results reported in article PMC2758050 (Bioorganic & medicinal chemistry letters, 2009).
Read-outs that look alike come from different tables or passages of the source.

Key:
[1] = molecular target: mMC1R (Mus musculus, UniProt Q01727); test: Agonist activity of N-capped tripeptides on mouse MC1 receptor
[2] = tested on: hMC1R; details: cited from earlier work; for EC50: read-out: EC50 hMC1R, agonist
[3] = molecular target: mMC5R (Mus musculus, UniProt P41149); test: Agonist activity of N-capped tripeptides on mouse MC5 receptor
Sequence of mMC5R (P41149 whole entry): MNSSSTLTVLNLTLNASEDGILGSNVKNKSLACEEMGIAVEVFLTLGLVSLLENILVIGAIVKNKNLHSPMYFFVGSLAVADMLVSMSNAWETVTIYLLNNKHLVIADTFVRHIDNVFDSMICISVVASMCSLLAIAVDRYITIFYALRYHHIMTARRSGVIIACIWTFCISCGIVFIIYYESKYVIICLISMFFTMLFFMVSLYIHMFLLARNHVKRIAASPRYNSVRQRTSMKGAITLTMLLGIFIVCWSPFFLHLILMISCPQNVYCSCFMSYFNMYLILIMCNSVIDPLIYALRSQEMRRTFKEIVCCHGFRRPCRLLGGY

[4] = tested on: DNA damage resulting from exposure to solar UV radiation; details: compared with α-MSH; ref 4a; cited from earlier work
[5] = molecular target: mMC4R (Mus musculus, UniProt P56450); test: Agonist activity of N-capped tripeptides on mouse MC4 receptor
Sequence of mMC4R (P56450 whole entry): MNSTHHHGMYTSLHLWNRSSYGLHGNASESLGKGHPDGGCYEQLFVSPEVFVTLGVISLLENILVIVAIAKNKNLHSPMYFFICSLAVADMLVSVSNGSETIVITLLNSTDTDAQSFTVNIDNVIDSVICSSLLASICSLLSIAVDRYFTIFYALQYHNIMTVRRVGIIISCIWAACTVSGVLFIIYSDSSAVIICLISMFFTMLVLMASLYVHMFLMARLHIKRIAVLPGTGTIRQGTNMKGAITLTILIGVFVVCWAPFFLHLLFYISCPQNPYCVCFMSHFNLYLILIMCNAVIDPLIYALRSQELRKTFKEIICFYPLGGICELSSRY

[6] = tested on: hMC4R; details: ref 3b; cited from earlier work
[7] = tested on: hMC3R; details: ref 3b; cited from earlier work

Sequence of mMC1R (Q01727 whole entry): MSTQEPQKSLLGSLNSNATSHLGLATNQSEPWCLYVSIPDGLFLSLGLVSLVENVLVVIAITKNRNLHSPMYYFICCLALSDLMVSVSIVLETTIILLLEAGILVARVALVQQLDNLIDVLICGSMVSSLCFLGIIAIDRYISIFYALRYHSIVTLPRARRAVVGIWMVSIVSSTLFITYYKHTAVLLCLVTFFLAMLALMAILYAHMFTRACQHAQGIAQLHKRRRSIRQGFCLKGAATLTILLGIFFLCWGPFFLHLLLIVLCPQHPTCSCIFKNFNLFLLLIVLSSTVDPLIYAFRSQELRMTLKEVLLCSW

Row | Compound | EC50 [1] [nM] | EC50 ([2]; ref 3a) [nM] | EC50 [3] [nM] | potency in repairing DNA damage resulting from solar UV radiation [4] | EC50 [5] [nM] | type of agonism at hMC4R [6] | loss in potency compared to 1 at mMC1R ([1]; vs tetrapeptide 1) [fold] | EC50 ([2]; ref 3b) [nM] | type of agonism at hMC1R ([2]; ref 3b) | type of agonism at hMC3R [7]
1 | N=C(N)NCCC[C@H](NC(=O)[C@@H](Cc1ccccc1)NC(=O)[C@H](Cc1c[nH]cn1)NC(=O)CCCc1ccccc1)C(=O)N[C@@H](Cc1c[nH]c2ccccc12)C(N)=O [Compound 1, Ph(CH2)3CO-His-D-Phe-Arg-Trp-NH2] | 1.6 ± 0.29 | 0.01 | 0.33 ± 0.14 | more potent than α-MSH | 0.54 ± 0.19 |  |  |  |  | 
2 | N=C(N)NCCC[C@H](NC(=O)[C@@H](Cc1ccccc1)NC(=O)[C@H](Cc1c[nH]cn1)NC(=O)CCCc1ccccc1)C(N)=O [Compound 2, Ph(CH2)3CO-His-D-Phe-Arg-NH2] |  |  |  |  |  | weak partial agonism | 590 | 5 | full hMC1 agonist | weak partial agonism
